Laboratory results reported in US8518993B2, “Combination of bioavailable methionine with at least one essential oil” (Adisseo Ireland Ltd., priority 2005, dated 2013).

Test system: ileal flora of meat chicken
Experiment: Gas production in vitro by ileal contents of meat chicken (wheat-based diet)
Type: cell-based
Excerpt: The purpose of the following tests is to compare the production of gas by the flora of the ileal contents of meat chicken, in relation to various test parameters. The production of gas is an indirect indicator of the bacterial activity of the ileal flora of the chicken.
50 meat chicken are raised with a wheat-based diet. These chicken are raised with the same nutritional regimen. The chicken are sacrificed on the 35th day, then the contents of their ileum are removed in anaerobic conditions. The contents are placed in bottles which are stored at −18° C.
Based on the experimental design described in Table I below, the volume of gas produced is measured as a function of time.
48 bottles are filled successively with:
the treatment (nothing for the negative control, HMTBA, EO or the test item),
90 ml of buffer solution, containing wheat starch (nutrient medium for the bacteria); the function of this buffer solution is to maintain a constant pH and suppress O2
10 ml of inoculum, comprising a mixture of ¼ of ileal contents and ¾ of sterile physiological solution, which is filtered and homogenized before filling.
The doses tested are calculated to be representative of the concentrations of the products that would be found in the gastrointestinal contents of the animals.
Using the experimental design described in Table I above, curves of the volume of gas produced as a function of time are obtained, and are mostly sigmoidal.
These curves are modelled according to the following model: Y=A/(1+(C/t)^B) where
A, B and C=parameters of the model
Using these equations, we then analyse the modelled final volume Vf (Vf=A), as well as the time for which the rate of production of gas is maximum, called Trm (this time is used as an indirect measure of the latency, which is not accessible with this model). […] If the probability of the treatment effect is significant, i.e. if p<0.05, the means are then compared by the Fisher PLSD test, which makes it possible to establish the differences on the means between the various treatments.
The experimental conditions and parameters of Example 1 are repeated in Example 2, according to Table III below.
The experimental conditions and parameters of example 1 are repeated in Example 3, according to Table V below.
The experimental conditions and parameters of Example 1 are repeated in example 4, according to Table VII below.
For this test, ileal flora derived from 35-day-old chickens fed with a wheat-based diet is used.
In this test, one of the mixtures tested in Example 1 is tested.

[1] = Example 1, wheat-based diet, HMTBA 83 mg, EO 28-50 mg per bottle (Table I), 4 repetitions
[2] = Example 2, HMTBA 83 mg, EO 15 mg (Table III), EO1 red thyme, EO2 tea tree
[3] = Example 3, HMTBA 83 mg, EO 15 mg (Table V), EO1 cinnamon
[4] = Example 4, HMTBA 83 mg, MEO 15 mg (Table VII), MEO 3/4 tea tree and 1/4 cinnamon
[5] = Example 8, HMTBA 113 mg, origanum oil 13 mg (Table XII)

## 2-hydroxy-4-methylthiobutanoic acid [HMTBA]
Example 1
  Effect on bacterial activity measured by Trm (in words): little if any effect
[1]
  Trm: time for which the rate of production of gas is maximum, Mean: 10.8 h
  Vf: final volume of gas produced, Mean: 565 mL
[2]
  Trm: time for which the gas production rate is at a maximum, Mean: 20.3 h
  Vf: final volume of gas produced, Mean: 296.2 mL
[3]
  Trm: time for which the gas production rate is at a maximum, Mean: 28.1 h
  Vf: final volume of gas produced, Mean: 334.3 mL
[4]
  Trm: time for which the gas production rate is at a maximum, Mean: 15.4 h
  Vf: final volume of gas produced, Mean: 421 mL
Example 4, negative control Trm 11.1 h
  Trm difference with the negative control: 4.3 h
Example 8
  Effect on fermentation / activity of the bacterial flora (in words): no significant effect
[5]
  Trm, Means: 16.2 h
  Vf, Means: 353 mL
